Read-outs that look alike come from different tables or passages of the source.
Legend:
[1] = test system: HCV replicon (strain 1b) in HUH-7 cells; test: HCV replicon FRET assay; format: cell-based; conditions: Hepatitis C virus
Excerpt: An HCV replicon whole cell system was established as described by Lohmann V, Korner F, Koch J, Herian U, Theilmann L, Bartenschlager R., Science 285(5424): 110-3 (1999). This system enabled us to evaluate the effects of our HCV Protease compounds on HCV RNA replication. Briefly, using the HCV strain 1b sequence described in the Lohmann paper (Assession number:AJ238799), an HCV cDNA was synthesized by Operon Technologies, Inc. (Alameda, Calif.), and the full-length replicon was then assembled in plasmid pGem9zf(+) (Promega, Madison, Wis.) using standard molecular biology techniques. The replicon consists of (i) the HCV 5′ UTR fused to the first 12 amino acids of the capsid protein, (ii) the neomycin phosphotransferase gene (neo), (iii) the IRES from encephalomyocarditis virus (EMCV), and (iv) HCV NS3 to NS5B genes and the HCV 3′ UTR. Plasmid DNAs were linearized with ScaI and RNA transcripts were synthesized in vitro using the T7 MegaScript transcription kit (Ambion, Austin, Tex.) according to manufacturer's directions. In vitro transcripts of the cDNA were transfected into the human hepatoma cell line, HUH-7. […] Resulting cell lines were characterized for positive and negative strand RNA production and protein production over time.
The HCV replicon FRET assay was developed to monitor the inhibitory effects of compounds described in the disclosure on HCV viral replication. HUH-7 cells, constitutively expressing the HCV replicon, were grown in Dulbecco's Modified Eagle Media (DMEM) (Gibco-BRL) containing 10% Fetal calf serum (FCS) (Sigma) and 1 mg/ml G418 (Gibco-BRL). Cells were seeded the night before (1.5×10^4 cells/well) in 96-well tissue-culture sterile plates. Compound and no compound controls were prepared in DMEM containing 4% FCS, 1:100 Penicillin/Streptomysin (Gibco-BRL), 1:100 L-glutamine and 5% DMSO in the dilution plate (0.5% DMSO final concentration in the assay). Compound/DMSO mixes were added to the cells and incubated for 4 days at 37° C. After 4 days, cells were first assessed for cytotoxicity using alamar Blue (Trek Diagnotstic Systems) for a CC50 reading. The toxicity of compound (CC50) was determined by adding 1/10th volume of alamar Blue to the media incubating the cells. After 4 h, the fluorescence signal from each well was read, with an excitation wavelength at 530 nm and an emission wavelength of 580 nm, using the Cytofluor Series 4000 (Perspective Biosystems). Plates were then rinsed thoroughly with Phosphate-Buffered Saline (PBS) (3 times 150 μl).

[2] = target: T1, NS3/4A protease complex (UniProt P27958); test: HCV NS3/4A protease complex enzyme assay (strain not stated); format: biochemical; conditions: Table 2; strain and unit inferred
T1 construct: fused on or other part: three-lysine solubilising tail at the C-terminus of NS4A; probably a His tag from pET21b (Ni-NTA purification)
Excerpt: The purpose of this in vitro assay was to measure the inhibition of HCV NS3 protease complexes, derived from the BMS strain, H77 strain or J4L6S strain, as described above, by compounds of the present disclosure. This assay provides an indication of how effective compounds of the present disclosure would be in inhibiting HCV NS3 proteolytic activity.
In order to monitor HCV NS3/4A protease activity, an NS3/4A peptide substrate was used. The substrate was RET S1 (Resonance Energy Transfer Depsipeptide Substrate; AnaSpec, Inc. cat #22991)(FRET peptide), described by Taliani et al. in Anal. Biochem. 240(2):60-67 (1996). The sequence of this peptide is loosely based on the NS4A/NS4B natural cleavage site for the HCV NS3 protease except there is an ester linkage rather than an amide bond at the cleavage site. The peptide also contains a fluorescence donor, EDANS, near one end of the peptide and an acceptor, DABCYL, near the other end. The fluorescence of the peptide is quenched by […] resonance energy transfer (RET) between the donor and the acceptor, but as the NS3 protease cleaves the peptide the products are released from RET quenching and the fluorescence of the donor becomes apparent.
The peptide substrate was incubated with one of the three recombinant NS3/4A protease complexes, in the absence or presence of a compound of the present disclosure. The inhibitory effects of a compound were determined by monitoring the formation of fluorescent reaction product in real time using a Cytofluor Series 4000.
Assay buffer: 50 mM HEPES, pH 7.5; 0.15 M NaCl; 0.1% Triton; 15% Glycerol; 10 mM βME. Substrate: 2 μM final concentration (from a 2 mM stock solution in DMSO stored at −20° C.). HCV NS3/4A protease type 1a (1b), 2-3 nM final concentration (from a 5 μM stock solution in 25 mM HEPES, pH 7.5, 20% glycerol, 300 mM NaCl, 0.2% Triton-X100, 10 mM βME). For compounds with potencies approaching the assay limit, the assay was made more sensitive by adding 50 μg/ml Bovine Serum Albumin (Sigma) to the assay buffer and reducing the end protease concentration to 300 pM.
The assay was performed in a 96-well polystyrene black plate from Falcon. Each well contained 25 μl NS3/4A protease complex in assay buffer, 50 μl of a compound of the present disclosure in 10% DMSO/assay buffer and 25 μl substrate in assay buffer. A control (no compound) was also prepared on the same assay plate. The enzyme complex was mixed with compound or control solution for 1 min before initiating the enzymatic reaction by the addition of substrate. The assay plate was read immediately using the Cytofluor Series 4000 (Perspective Biosystems). The instrument was set to read an emission of […] at 25° C. Reactions were generally followed for approximately 15 min.
The percent inhibition was calculated with the following equation: […]
where δF is the change in fluorescence over the linear range of the curve. A non-linear curve fit was applied to the inhibition-concentration data, and the 50% effective concentration (IC50) was calculated by the use of Excel XLfit software using the equation, y=A+((B−A)/(1+((C/x)̂D))).

T1 sequence (P27958 1027-1657, one chain of several): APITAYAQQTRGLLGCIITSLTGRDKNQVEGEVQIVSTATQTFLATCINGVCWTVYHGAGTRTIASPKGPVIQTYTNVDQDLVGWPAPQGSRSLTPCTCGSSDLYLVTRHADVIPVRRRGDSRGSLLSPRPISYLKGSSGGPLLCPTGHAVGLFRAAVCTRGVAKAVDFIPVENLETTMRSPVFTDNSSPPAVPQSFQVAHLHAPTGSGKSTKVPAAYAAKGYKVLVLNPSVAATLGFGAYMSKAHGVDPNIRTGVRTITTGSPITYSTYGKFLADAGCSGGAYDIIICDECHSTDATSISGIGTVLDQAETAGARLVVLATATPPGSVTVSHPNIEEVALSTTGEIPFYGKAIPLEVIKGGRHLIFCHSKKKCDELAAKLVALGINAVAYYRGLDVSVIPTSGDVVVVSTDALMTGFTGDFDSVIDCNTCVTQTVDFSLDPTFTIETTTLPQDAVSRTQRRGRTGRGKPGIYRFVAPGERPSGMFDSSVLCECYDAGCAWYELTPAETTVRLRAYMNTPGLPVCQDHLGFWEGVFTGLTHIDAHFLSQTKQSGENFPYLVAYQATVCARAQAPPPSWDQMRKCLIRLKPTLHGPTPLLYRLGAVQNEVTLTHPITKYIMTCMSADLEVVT

## COc1ccc2c(O[C@@H]3C[C@H]4C(=O)N[C@]5(C(=O)NS(=O)(=O)C6CC6)C[C@H]5/C=C\CCCCC[C@H](Nc5ccc(OC)nc5)C(=O)N4C3)nccc2c1 (single isomer, unassigned) [Compound 1]
[1]; 96 h, HUH-7 replicon cells, 4 days, read-out: EC50 value in the replicon FRET assay
  EC50: 21 nM
[1]; Huh-7, Table 2, replicon assay variant and unit inferred, read-out: EC50
  EC50: 20.5 nM
[2]
  IC50: 7 nM

Reference: US20090285773A1, “Hepatitis C Virus Inhibitors” (Bristol-Myers Squibb Company, priority 2008, published 2009)
